According to patent US6455578B1, “Aromatic derivatives and iron complexes thereof for the use as normalizing agents of the iron level” (Laboratoire Medidom S.A., priority 1998, dated 2002):
One block for each compound: values may come before it.

Legend:
[1] = In vivo tests on permeation of rat erythrocytes / detection in rat tissues and excretion; details: for Qualitative detection in Erythrocytes / Qualitative detection in Plasma / Qualitative detection in Brain / Qualitative detection in Liver / Qualitative detection in Urine: rat, single oral dose 20 mg per Kg
Procedure: The tests are performed on male rats Sprague-Dawley weighting from 250 to 300 g.
The chelating agent 3-hydroxy-2-methyl-4H-1-benzopyran-4-one prepared as in Example 1, vehiculated by 4 parts of β-cyclodextrine for each part of chelating agent, is administered to the rats in a single oral dose comprising 20 mg of chelating agent per Kg of body weight.
The chelating agent 3-hydroxy-2-(5-hydroxypentyl)-4H-1-benzopyran-4-one prepared as in Example 3 is administered to the rats in a single oral dose, comprising 2% of methyl cellulose and 20 mg of chelating agent per Kg of body weight.

[2] = In vivo tests on permeation of rat erythrocytes / detection in rat tissues and excretion; details: rats, 20 mg per Kg in DMSO by intraperitoneal route; 15, 30 and 60 minutes after treatment
[3] = tested on: erythrocytes; assay: In vitro tests on permeation into erythrocytes; type: in vitro ADME, rat; details: for found in the aqueous medium containing the phosphate buffer after resuspension of loaded erythrocytes: loaded erythrocytes resuspended in fresh buffer; for found in the aqueous medium containing the phosphate buffer after resuspension of loaded erythrocytes / found in the plasmatic medium after resuspension of loaded erythrocytes / distribution between previously overloaded erythrocytes and the aqueous medium of resuspension: further 30 minutes at 37 C; for found in the plasmatic medium after resuspension of loaded erythrocytes: loaded erythrocytes resuspended in their plasma; for distribution between previously overloaded erythrocytes and the aqueous medium of resuspension: loaded erythrocytes resuspended in fresh plasma or fresh buffer; for time in which a balance between intracellular and extracellular environment is reached: rat erythrocytes
Procedure: Solutions of 3-hydroxy-2-methyl-4H-1-benzopyran-4-one prepared as in Example 1 and the related Fe(III) complex obtained in acetone as in Example 4 were used for suitable sampling in incubation flasks. For the complex acetone is evaporated, and the biologic samples are then added to the residue. Whole blood of rat deprived of leucocytes, or alternatively erythrocytes washed and resuspended in 127 mM of sodium phosphate 50% buffer (pH=7.4) and containing 23 mM of NaCl, were added into the incubation flasks and incubated at 37° C. for 15 and respectively 30 minutes.
At those times erythrocytes were separeted by centrifugation and separately extracted together with the supernatants with 2 volumes of ethyl acetate. The related quantities of the tested substances were measured by spectrophotometry in ethyl acetate and compared with suitable standards. After 30 minutes of incubation the 3-hydroxy-2-methyl-4H-1-benzopyran-4-one as well as the related Fe(III) complex were found in the erythrocytes for 51% and for 49% in the aqueous medium. After 30 minutes of incubation 50% of the sedimented erythrocytes are resuspended in their fresh plasma and the remaining 50% in fresh buffer.
Erhytrocytes of rat were separated from their plasma deprived of leucocytes. Part of the erythrocytes were resuspended in sodium phosphate 50% buffer (pH=7.4), and another part of the erythrocytes were joined to part of their plasma so to obtained a 50% hematocrit. To both suspensions were added alternatively 100 mg/l of 3-hydroxy-2-(5-hydroxypentyl)-4H-benzopyran-4-one prepared as in Example 3 and 50 mg/l of the related Fe(III) complex prepared as in Example 5, and the incubation was made at 37° C. After 30 minutes the erythrocytes were separated by centrifugation and extracted separately together with supernatants with ethyl acetate. The quantities of the tested substances were measured by spectrophotometry in ethyl acetate and compared to suitable standards.
After 30 minutes incubation the 40% of 3-hydroxy-2-(5-hydroxypenthyl)-4H-1-benzopyran-4-one, as well as of the ferric complex thereof, were found in the erythrocytes and the remaining 60% in the medium represented by plasma. When the medium is the phosphate buffer the 60% of the tested compounds were found in erythrocytes and the remaining 40% in the medium.
After sedimentation 50% of the erythrocytes containing the tested compounds was resuspended in their plasma and the remaining 50% in fresh buffer. After a further 30 minutes incubation at 37° C. 60% of 3-hydroxy-2-(5-hydroxypentyl)-4H-1-benzopyran-4-one and of the related complex were found in the plasmatic medium and the remaining 40% in the aqueous medium containing the phosphate buffer. Therefore the chelating agent as well as the related ferric complex do permeate into cellular membranes in both directions, and are uniformly distributed in the intracellular and in the extracellular environment.

[4] = Partition test between n-octanol and aqueous solution pH 7.4; type: physicochemical; details: for partition between n-octanol and aqueous solution (result in words): n-octanol / aqueous 20 mM tris(hydroxymethyl)aminomethane chlorhydrate pH 7.4, Example 7: concentration 100 mM
Procedure: In particular, partition experiments have been carried out between n-ottanol and an aqueous solution 20 mM of tris(hydroxymethyl)aminomethane chlorohydrate brought to pH=7.4 by adding sodium phosphate, obtaining values of the ripartition coefficient, expressed as the ratio between the concentration of the compound in the organic phase and that in the aqueous phase, tipically higher than 20, for the present formula (I) compounds as well as for the Fe (III) complexes thereof.
The partition coefficient between n-octanol and an aqueous solution 20 mM of tris(hydroxymethyl)aminomethane brought to pH=7.4 by the addition of sodium phosphate has been determined by spectrophotometry at room temperature for 3-hydroxy-2-methyl-4H-1-benzopyran-4-one and for the related Fe(III) complex.
In the aqueous solution the 3-hydroxy-2-methyl-4H-1-benzopyran-4one obtained as described in Example 1 was dissolved in the quantity sufficient to have a concentration equal to 10^−4 M. 5 ml of said solution were centrifuged with 5 ml of n-octanol, and the two resulting phases were separated for a concentration determination on each by spectrophotometry.
The partition coefficient, expressed as the ratio between the concentration of the compound in n-octanol and its concentration in the aqueous solution, resulted 24. In the same aqueous solution above described the Fe(III) complex obtained as in Example 4 was dissolved, in the sufficient quantity to obtain a concentration equal to 2×10^−4 M. 5 ml of said solution are centrifuged with 5 ml of n-octanol, then the two resulting phases were separated for a concentration determination on each by spectrophotometry. A partition coefficient equal to 25 was obtained.
According to the procedure described in Example 6 partition data were determined between n-octanol and an aqueous solution 20 mM of tris(hydroxymethyl)aminomethane chlorhydrate brought to pH 7.4 by addition of sodium phosphate, for 3-hydroxy-2-(5-hydroxypentyl)-4H-1-benzopyran-4-one prepared as in Example 3 as well as for the related Fe(III) complex prepared as in Example 5.
In the aqueous solution 3-hydroxy-2-(5-hydroxypentyl)-4H-1-benzopyran-4-one as prepared in Example 3 was dissolved so to obtain a concentration equal to 100 mM. 5 ml of said solution were centrifuged with 5 ml of n-octanol, then the two resulting phases, the aqueous and the organic one, were separated for a concentration determination on each by spectrophotometry.
The same experiment was repeated by dissolving the Fe(III) complex prepared as in Example 5 in the above described aqueous solution.

[5] = Stability constant of the Fe(III) complex by cyclic voltammetry; type: physicochemical
Procedure: wherein R5 is CH3, has been measured by voltammetry with a Pt electrode as the working electrode and with a calomel electrode as the reference electrode, obtaining a stability constant equal to 3.0×10^10.
The complexation cynetics has been moreover studied by cyclic voltammetry with a Pt electrode as the working electrode and a calomel electrode as the reference electrode, in the following conditions:ferric perchlorate (7 mg) is dissolved in 20 ml of a NaCl solution 150 mM containing 5% of DMSO, and this solution is put into the voltammetric cell for the plot registration; from this plot the half-wave potential for the ferric salt can be deduced: (E½)s Fe^3+/Fe^2+=0.420 V.
3-hydroxy-2-methyl-4H-1-benzopyran-4-one (10.5 mg) is dissolved in DMSO (3 ml), and with the so obtained solution 4 additions are made to the voltammetric cell, registering the cyclic voltammetric plot after every addition. […]
The stability constant of the complex is calculated according to the following formula: [formula]
wherein (E½)s e (E½)c are the half-wave potential of the salt and, respectively, of the complex above reported, n is the number of electrons, β is the stability constant of the complex and c is its concentration, and p is the number of chelating agent molecules in the complex. The so calculated value of the stability constant is […].

[6] = medium phosphate buffer pH 7.4, 37 C, 30 minutes, 100 mg/l ligand or 50 mg/l complex
[7] = medium plasma, 50% hematocrit, 37 C, 30 minutes, 100 mg/l ligand or 50 mg/l complex
[8] = male Sprague-Dawley rats, single oral dose 20 mg per Kg with beta-cyclodextrine
[9] = rat whole blood deprived of leucocytes or washed erythrocytes in phosphate buffer pH 7.4, 37 C, 30 minutes incubation

presence in urine ([1]; male Sprague-Dawley rats, single oral dose 20 mg per Kg in 2% methyl cellulose, 12, 24 and 48 hours from administration): has been revealed | presence in plasma ([1]; rats, 20 mg per Kg in DMSO by intraperitoneal route, 15, 30 and 60 minutes after treatment): has been revealed | melting point: 111 to 112 °C | presence in erythrocytes [2]: has been revealed | found in the aqueous medium containing the phosphate buffer after resuspension of loaded erythrocytes [3]: 40% | found in the plasmatic medium after resuspension of loaded erythrocytes [3]: 60% | found in erythrocytes [3, 6]: 60% | found in the medium [3, 6]: 40% | found in the erythrocytes [3, 7]: 40% | found in the medium [3, 7]: 60% | partition between n-octanol and aqueous solution (result in words) [4]: completely pass in the alcoholic phase
Compound: O=c1c(O)c(CCCCCO)oc2ccccc12 [3-hydroxy-2-(5-hydroxypentyl)-4H-1-benzopyran-4-one]

presence in urine (onset) [1, 8]: starting from twenthyfourth hour | time of maximum presence (erythrocytes, brain and liver) [1, 8]: maximum in the fourth hour | presence in erythrocytes, brain and liver (first detection) ([1]; male Sprague-Dawley rats, single oral dose 20 mg per Kg with beta-cyclodextrine, spectrophotometry and fluorimetry): found already in the first hour | Qualitative detection in Erythrocytes ([1]; 1/2 hr after administration): p(+) | Qualitative detection in Plasma ([1]; 1/2 hr after administration): p(+) | Qualitative detection in Brain ([1]; 1 hr after administration): p(+) | Qualitative detection in Erythrocytes ([1]; 1 hr after administration): p(++) | Qualitative detection in Liver ([1]; 1 hr after administration): p(+) | Qualitative detection in Plasma ([1]; 1 hr after administration): p(++) | Qualitative detection in Brain ([1]; 4 hr after administration): p(++) | Qualitative detection in Erythrocytes ([1]; 4 hr after administration): p(+++) | Qualitative detection in Liver ([1]; 4 hr after administration): p(+++) | Qualitative detection in Plasma ([1]; 4 hr after administration): p(++) | Qualitative detection in Urine ([1]; 4 hr after administration): p(+) | Qualitative detection in Brain ([1]; 24 hr after administration): p(++) | Qualitative detection in Liver ([1]; 24 hr after administration): p(++) | Qualitative detection in Urine ([1]; 24 hr after administration): p(++) | Qualitative detection in Urine ([1]; 48 hr after administration): p(+++) | melting point: 179 to 180 °C | distribution between previously overloaded erythrocytes and the aqueous medium of resuspension [3]: equally distributed | time in which a balance between intracellular and extracellular environment is reached ([3]; 37 C): ca. 30 minutes | found in the aqueous medium [3, 9]: 49% | found in the erythrocytes [3, 9]: 51% | logD ([4]; n-octanol / aqueous 20 mM tris(hydroxymethyl)aminomethane pH 7.4, room temperature, spectrophotometry, ligand 10^-4 M, complex 2x10^-4 M, read-out: partition coefficient (concentration in n-octanol / concentration in aqueous solution) (converted)): 1.38
Compound: Cc1oc2ccccc2c(=O)c1O [3-hydroxy-2-methyl-4H-1-benzopyran-4-one]

found in the aqueous medium containing the phosphate buffer after resuspension of loaded erythrocytes [3]: 40% | found in the plasmatic medium after resuspension of loaded erythrocytes [3]: 60% | found in erythrocytes [3, 6]: 60% | found in the medium [3, 6]: 40% | found in the erythrocytes [3, 7]: 40% | found in the medium [3, 7]: 60% | partition between n-octanol and aqueous solution (result in words) [4]: completely pass in the alcoholic phase
Compound: Fe(III) complex of 3-hydroxy-2-(5-hydroxypentyl)-4H-1-benzopyran-4-one

Compound: Fe(III) complex of 3-hydroxy-2-methyl-4H-1-benzopyran-4-one
distribution between previously overloaded erythrocytes and the aqueous medium of resuspension [3]: equally distributed | time in which a balance between intracellular and extracellular environment is reached ([3]; 37 C): ca. 30 minutes | found in the aqueous medium [3, 9]: 49% | found in the erythrocytes [3, 9]: 51% | half-wave potential of the complex (E1/2) Fe3+/Fe2+ ([5]; cyclic voltammetry, after first addition of 0.5 ml chelating agent solution in DMSO): 0.120 V | stability constant of the Fe(III) complex ([5]; voltammetry, Pt working electrode, calomel reference electrode, NaCl 150 mM containing 5% DMSO): 3.0×10^10 | partition coefficient (concentration in n-octanol / concentration in aqueous solution) ([4]; n-octanol / aqueous 20 mM tris(hydroxymethyl)aminomethane pH 7.4, room temperature, spectrophotometry, ligand 10^-4 M, complex 2x10^-4 M): 25
